Measured values published in US8178506B2, “Oligomeric compounds and compositions for use in modulation of small non-coding RNAs” (Regulus Therapeutics Inc., priority 2003, dated 2012).

How the values were obtained:
Type in all cases: cell-based, human
Settings in all cases: differentiating adipocytes transfected with oligomeric compound; Table 75
[1] = tested on: PPARγ; experiment: PPARγ mRNA expression in adipocytes (real-time PCR)
[2] = tested on: aP2; experiment: aP2 mRNA expression in adipocytes (real-time PCR)
[3] = tested on: Glut4; experiment: Glut4 mRNA expression in adipocytes (real-time PCR)
[4] = tested on: adipocytes; experiment: Triglyceride accumulation assay in adipocytes
[5] = tested on: HSL; experiment: HSL mRNA expression in adipocytes (real-time PCR)

| Substance | PPAR gamma mRNA [1] | aP2 mRNA [2] | GLUT4 mRNA [3] | TG (triglyceride accumulation) [4] | HSL mRNA [5] |
| --- | --- | --- | --- | --- | --- |
| 344276 (antisense CAGGCAUAGGAUGACAAAGGGAA; all 2'-MOE, all phosphorothioate, methylation of C and T or U not given here) [compound 344276] | 72 percentage of untreated control (UTC) | 72 percentage of untreated control (UTC) | 49 percentage of untreated control (UTC) | 66 percentage of untreated control (UTC) | 68 percentage of untreated control (UTC) |
| 344277 (antisense AAUACAUACUUCUUUACAUUCCA; all 2'-MOE, all phosphorothioate, methylation of C and T or U not given here) [compound 344277] | 68 percentage of untreated control (UTC) | 61 percentage of untreated control (UTC) | 45 percentage of untreated control (UTC) | 75 percentage of untreated control (UTC) | 57 percentage of untreated control (UTC) |
| 344338 (antisense AUGCCCUUUUAACAUUGCACUG; all 2'-MOE, all phosphorothioate, methylation of C and T or U not given here) [compound 344338] | 91 percentage of untreated control (UTC) | 86 percentage of untreated control (UTC) | 66 percentage of untreated control (UTC) | 103 percentage of untreated control (UTC) | 89 percentage of untreated control (UTC) |
| 344340 (UGUCCGUGGUUCUACCCUGUGGUA; all 2'-MOE, all phosphorothioate, methylation of C and T or U not given here) [compound 344340] | 67 percentage of untreated control (UTC) | 82 percentage of untreated control (UTC) | 16 percentage of untreated control (UTC) | 60 percentage of untreated control (UTC) | 47 percentage of untreated control (UTC) |
| 344341 (CACAUGGUUAGAUCAAGCACAA; anti-miR; all 2'-MOE, all phosphorothioate, methylation of C and T or U not given here) [compound 344341] | 49 percentage of untreated control (UTC) | 42 percentage of untreated control (UTC) | 14 percentage of untreated control (UTC) | 50 percentage of untreated control (UTC) | 33 percentage of untreated control (UTC) |
| 344342 (AUGCUUUUUGGGGUAAGGGCUU; anti-miR; all 2'-MOE, all phosphorothioate, methylation of C and T or U not given here) [compound 344342] | 83 percentage of untreated control (UTC) | 88 percentage of untreated control (UTC) | 71 percentage of untreated control (UTC) | 88 percentage of untreated control (UTC) | 87 percentage of untreated control (UTC) |
| 344343 (AUGCCCUUUCAUCAUUGCACUG; anti-miR; all 2'-MOE, all phosphorothioate, methylation of C and T or U not given here) [compound 344343] | 30 percentage of untreated control (UTC) | 25 percentage of untreated control (UTC) | 4 percentage of untreated control (UTC) | 32 percentage of untreated control (UTC) | 22 percentage of untreated control (UTC) |
| 344611 (ACAUUUUUCGUUAUUGCUCUUGA; anti-miR; all 2'-MOE, all phosphorothioate, methylation of C and T or U not given here) [compound 344611] | 34 percentage of untreated control (UTC) | 34 percentage of untreated control (UTC) | 3 percentage of untreated control (UTC) | 43 percentage of untreated control (UTC) | 31 percentage of untreated control (UTC) |
| 344612 (ACGGAAGGGCAGAGAGGGCCAG; anti-miR; all 2'-MOE, all phosphorothioate, methylation of C not given here) [compound 344612] | 62 percentage of untreated control (UTC) | 72 percentage of untreated control (UTC) | 40 percentage of untreated control (UTC) | 69 percentage of untreated control (UTC) | 59 percentage of untreated control (UTC) |
| 344613 (ACACCAAUGCCCUAGGGGAUGCG; anti-miR; all 2'-MOE, all phosphorothioate, methylation of C and T or U not given here) [compound 344613] | 57 percentage of untreated control (UTC) | 55 percentage of untreated control (UTC) | 38 percentage of untreated control (UTC) | 47 percentage of untreated control (UTC) | 46 percentage of untreated control (UTC) |
| 344614 (CCAGCAGCACCUGGGGCAGU; all 2'-MOE, all phosphorothioate, methylation of C and T or U not given here) [compound 344614] | 86 percentage of untreated control (UTC) | 78 percentage of untreated control (UTC) | 61 percentage of untreated control (UTC) | 89 percentage of untreated control (UTC) | 71 percentage of untreated control (UTC) |
| 344615 (UCAACAAAAUCACUGAUGCUGGA; anti-miR; all 2'-MOE, all phosphorothioate, methylation of C and T or U not given here) [compound 344615] | 144 percentage of untreated control (UTC) | 166 percentage of untreated control (UTC) | 145 percentage of untreated control (UTC) | 149 percentage of untreated control (UTC) | 154 percentage of untreated control (UTC) |
| 344616 (AGAGGUCGACCGUGUAAUGUGC; anti-miR; all 2'-MOE, all phosphorothioate, methylation of C and T or U not given here) [compound 344616] | 36 percentage of untreated control (UTC) | 26 percentage of untreated control (UTC) | 2 percentage of untreated control (UTC) | 32 percentage of untreated control (UTC) | 23 percentage of untreated control (UTC) |
| 344617 (GACGGGUGCGAUUUCUGUGUGAGA; all 2'-MOE, all phosphorothioate, methylation of C and T or U not given here) [compound 344617] | 72 percentage of untreated control (UTC) | 59 percentage of untreated control (UTC) | 42 percentage of untreated control (UTC) | 52 percentage of untreated control (UTC) | 55 percentage of untreated control (UTC) |
